Laboratory results taken from ChEMBL document CHEMBL1146005, “Estrogen receptor beta-subtype selective tetrahydrofluorenones: use of a fused pyrazole as a phenol bioisostere” (Bioorg Med Chem Lett, 2006).

Legend:
Estrogen receptor [1] = biological target: T1, Estrogen receptor (Homo sapiens, UniProt P03372)
T1 sequence (P03372 whole entry): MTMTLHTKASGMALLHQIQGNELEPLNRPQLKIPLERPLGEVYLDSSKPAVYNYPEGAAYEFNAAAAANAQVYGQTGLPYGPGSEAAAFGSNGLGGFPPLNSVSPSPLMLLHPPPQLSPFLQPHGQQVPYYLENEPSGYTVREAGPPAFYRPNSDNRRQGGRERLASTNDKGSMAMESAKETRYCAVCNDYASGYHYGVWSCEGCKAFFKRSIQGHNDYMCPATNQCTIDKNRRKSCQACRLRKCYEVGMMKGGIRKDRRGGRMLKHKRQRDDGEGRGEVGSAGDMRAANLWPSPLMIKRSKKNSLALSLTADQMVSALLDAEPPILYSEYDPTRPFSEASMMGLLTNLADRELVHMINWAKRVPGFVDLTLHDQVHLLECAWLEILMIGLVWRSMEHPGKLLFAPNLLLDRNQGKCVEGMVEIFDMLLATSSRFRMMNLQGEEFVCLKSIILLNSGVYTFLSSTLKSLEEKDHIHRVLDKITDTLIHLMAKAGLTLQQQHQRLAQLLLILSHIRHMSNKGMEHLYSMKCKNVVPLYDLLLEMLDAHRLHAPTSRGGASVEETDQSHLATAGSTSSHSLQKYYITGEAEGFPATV
Description: Agonist activity at human ERalpha transfected in HEK293 cells assessed as transactivation of alkaline phosphatase reporter gene

[2] = Half life in Sprague-Dawley rat at 1 mg/kg, iv and 2 mg/kg, po; type: ADME, organism-based; details: in vivo
[3] = Clearance in Sprague-Dawley rat at 1 mg/kg, iv and 2 mg/kg, po; type: ADME, organism-based; details: in vivo
Estrogen receptor beta [4] = biological target: T2, Estrogen receptor beta (Homo sapiens, UniProt Q92731)
T2 sequence (Q92731 whole entry): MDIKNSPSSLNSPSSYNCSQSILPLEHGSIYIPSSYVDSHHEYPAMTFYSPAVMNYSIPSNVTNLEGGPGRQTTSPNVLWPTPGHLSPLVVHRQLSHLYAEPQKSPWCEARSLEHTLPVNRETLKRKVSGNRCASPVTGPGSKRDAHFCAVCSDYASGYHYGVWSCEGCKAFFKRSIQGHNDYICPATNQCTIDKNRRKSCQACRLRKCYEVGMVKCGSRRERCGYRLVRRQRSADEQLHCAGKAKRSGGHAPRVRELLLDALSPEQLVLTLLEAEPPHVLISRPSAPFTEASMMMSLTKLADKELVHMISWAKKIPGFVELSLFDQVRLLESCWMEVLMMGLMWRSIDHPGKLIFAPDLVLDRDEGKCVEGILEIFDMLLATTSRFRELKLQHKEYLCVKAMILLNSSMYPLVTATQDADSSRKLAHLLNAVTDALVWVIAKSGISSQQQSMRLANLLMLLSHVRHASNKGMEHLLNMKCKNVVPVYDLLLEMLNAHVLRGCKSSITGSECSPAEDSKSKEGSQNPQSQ
Description: Agonist activity at human ERbeta transfected in HEK293 cells assessed as transactivation of alkaline phosphatase reporter gene

[5] = Oral bioavailability in Sprague-Dawley rat at 1 mg/kg, iv and 2 mg/kg, po; type: ADME, organism-based; details: in vivo
Estrogen receptor [6] = biological target: T1, Estrogen receptor; remark: listed apart in the source
Description: Binding affinity to human ERalpha

[7] = AUC in Sprague-Dawley rat at 1 mg/kg, iv; type: ADME, organism-based; parameters: dose 1 mg/kg, route intravenous; details: plasma
Estrogen receptor beta [8] = biological target: T2, Estrogen receptor beta; remark: listed apart in the source
Description: Binding affinity to human ERbeta

SMILES | EC50 (Estrogen receptor [1]) [µM] | half-life [2] [h] | clearance [3] [L/h/kg] | EC50 (Estrogen receptor beta [4]) [µM] | bioavailability [5] [%] | IC50 (Estrogen receptor [6]) [µM] | AUC [7] [nM·h] | IC50 (Estrogen receptor beta [8]) [µM]
CC[C@@]12CCC(=O)C(C(F)(F)F)=C1c1ccc3[nH]ncc3c1C2 | 0.05 | 0.7 | 2.16 | 0.0006 | 74 | 0.36 | 1500 | 0.0028
CC[C@@]12CCC(=O)C(C3CC3)=C1c1ccc3[nH]ncc3c1C2 | > 1 | 0.9 | 3.48 | 0.0058 | 55 | 0.47 | 1000 | 0.0077
CC[C@@]12CCC(=O)C(C)=C1c1ccc3[nH]ncc3c1C2 | 0.104 | 1.1 | 2.64 | 0.0021 | 51 | 1.36 | 1500 | 0.0072
CC[C@@]12CCC(=O)C(c3ccccc3)=C1c1ccc3[nH]ncc3c1C2 | 0.072 | – | – | 0.0008 | – | 0.046 | – | 0.0014
O=C1CC[C@@]2(CC3CC3)Cc3c(ccc4[nH]ncc34)C2=C1Br | – | – | – | – | – | 0.23 | – | 0.004
O=C1CC[C@@]2(CCC3CC3)Cc3c(ccc4[nH]ncc34)C2=C1Br | 0.061 | 1.2 | 3.3 | 0.0009 | 51 | 0.229 | 800 | 0.0016
CCCC[C@@]12CCC(=O)C(CC)=C1c1ccc3[nH]ncc3c1C2 | – | – | – | – | – | 0.093 | – | 0.0011
CC[C@@]12CCC(=O)C(Cl)=C1c1ccc3[nH]nc(F)c3c1C2 | – | – | – | – | – | 0.082 | – | 0.0011
CCCC[C@@]12CCC(=O)C(CC)=C1c1ccc3[nH]nc(F)c3c1C2 | – | – | – | – | – | 0.023 | – | 0.0003
CC[C@@]12CCC(=O)C(Br)=C1c1ccc3[nH]ncc3c1C2 | 0.065 | 0.7 | 4.44 | 0.0007 | 64 | 0.249 | 700 | 0.0022
CC[C@@]12CCC(=O)C(C(F)(F)F)=C1c1ccc3[nH]ncc3c1C2=O | 0.0104 | 1.2 | 0.9 | 0.0004 | 62 | 0.058 | 3200 | 0.0015
CC[C@@]12CCC(=O)C(Cl)=C1c1ccc3[nH]ncc3c1C2=O | – | – | – | – | – | 0.139 | – | 0.0041
CCCC[C@@]12CCC(=O)C(C(F)(F)F)=C1c1ccc3[nH]ncc3c1C2 | – | 0.9 | 3.84 | – | 25 | 0.176 | 900 | 0.0008
CCCC[C@@]12CCC(=O)C(C(=O)OC)=C1c1ccc3[nH]ncc3c1C2 | – | – | – | – | – | 2.08 | – | 0.0052
C[C@@]12CCC(=O)C(C(F)(F)F)=C1c1ccc3[nH]ncc3c1C2 | – | – | – | – | – | 1.48 | – | 0.008
CC[C@]12CCC(=O)C(C)=C1c1ccc3[nH]ncc3c1C2 | 1.1 | 0.8 | 1.86 | 0.935 | 44 | > 10 | 2000 | 4.46
CCCC[C@@]12CCC(=O)C(C(F)(F)F)=C1c1ccc3[nH]nc(F)c3c1C2 | – | – | – | – | – | 0.0492 | – | 0.001
CC[C@@]12CCC(=O)C(C(F)(F)F)=C1c1ccc3[nH]nc(F)c3c1C2 | 0.0083 | 1.9 | 2.52 | 0.0002 | 27 | 0.0509 | 1200 | 0.0003
CC[C@@]12CCC(=O)C(Cl)=C1c1ccc3[nH]ncc3c1C2 | 0.152 | 0.5 | 4.32 | 0.0015 | 47 | 0.47 | 900 | 0.0077

SMILES | EC50 (Estrogen receptor [1]) [µM] | half-life [2] [h] | clearance [3] [L/h/kg] | EC50 (Estrogen receptor beta [4]) [µM] | bioavailability [5] [%] | IC50 (Estrogen receptor [6]) [µM] | AUC [7] [nM·h] | IC50 (Estrogen receptor beta [8]) [µM]
CCCC[C@@]12CCC(=O)C(C(F)(F)F)=C1c1ccc3[nH]ncc3c1C2=O | – | 1.8 | 4.14 | – | 21 | 0.04 | 700 | 0.0009
CCC12CCC(=O)C(C(=O)OC)=C1c1ccc3[nH]ncc3c1C2 (racemic) | 1.17 | – | – | 0.21 | – | > 10 | – | 0.207
CCCCC12CCC(=O)C(C)=C1c1ccc3[nH]ncc3c1C2 (racemic) | – | – | – | – | – | 1.05 | – | 0.012
CCCCC12CCC(=O)C(Br)=C1c1ccc(O)cc1C2 (racemic) | – | 1.5 | 6.12 | – | 0 | – | 500 | –
CCC12CCC(=O)C(C)=C1c1ccc3[nH]nc(Cl)c3c1C2 (racemic) | – | – | – | – | – | 2.42 | – | 0.0425
CCC12CCC(=O)C(Br)=C1c1ccc3[nH]nc(F)c3c1C2 (racemic) | 0.0331 | – | – | 0.0008 | – | 0.197 | – | 0.0016
CCC1=C2c3ccc4[nH]ncc4c3CC2(CC)CCC1=O (racemic) | 0.059 | – | – | 0.0017 | – | 0.223 | – | 0.004
CCCCC12CCC(=O)C(Br)=C1c1ccc3[nH]ncc3c1C2 (racemic) | – | – | – | – | – | 1.41 | – | 0.0049
CC1=C2c3ccc4[nH]ncc4c3CC2(C)CCC1=O (racemic) | – | – | – | – | – | 4.41 | – | 0.069
CCCC12CCC(=O)C(C)=C1c1ccc3[nH]ncc3c1C2 (racemic) | – | – | – | – | – | 0.976 | – | 0.0126
CCC12CCC(=O)C=C1c1ccc3[nH]ncc3c1C2 (racemic) | > 1 | – | – | 0.076 | – | > 10 | – | 0.618
CC12CCC(=O)C(Br)=C1c1ccc3[nH]ncc3c1C2 (racemic) | – | – | – | – | – | 1.99 | – | 0.026
CCCCC12CCC(=O)C(C3CC3)=C1c1ccc3[nH]ncc3c1C2 (racemic) | – | – | – | – | – | 0.422 | – | 0.007
CCC12CCC(=O)C(C)=C1c1ccc3[nH]nc(Br)c3c1C2 (racemic) | – | – | – | – | – | 5.88 | – | 0.103
CCC12CCC(=O)C(C)=C1c1ccc3[nH]ncc3c1C2=O (racemic) | – | – | – | – | – | 0.624 | – | 0.0318
CCC12CCC(=O)C(Br)=C1c1ccc3[nH]ncc3c1C2=O (racemic) | 0.049 | – | – | 0.0015 | – | 0.352 | – | 0.008
CCCC12CCC(=O)C(Br)=C1c1ccc3[nH]ncc3c1C2 (racemic) | – | – | – | – | – | 0.663 | – | 0.0054
CCCCC12CCC(=O)C=C1c1ccc3[nH]ncc3c1C2 (racemic) | – | – | – | – | – | > 10 | – | 0.283
